The values below come from ChEMBL document CHEMBL3991601, “The target landscape of clinical kinase drugs” (Science, 2017).

The structures appear in SMILES notation. Activity calls are given as the source filed them. Some results are limits rather than exact numbers.

A word on the Kd: it is the equilibrium constant for the complex coming apart.

The target of test [1] is Wee1-like protein kinase (Homo sapiens, UniProt P30291).
Test [2] deals with Mitogen-activated protein kinase 1 (Homo sapiens, UniProt P28482).
Mitogen-activated protein kinase 1, sequence (P28482 whole entry): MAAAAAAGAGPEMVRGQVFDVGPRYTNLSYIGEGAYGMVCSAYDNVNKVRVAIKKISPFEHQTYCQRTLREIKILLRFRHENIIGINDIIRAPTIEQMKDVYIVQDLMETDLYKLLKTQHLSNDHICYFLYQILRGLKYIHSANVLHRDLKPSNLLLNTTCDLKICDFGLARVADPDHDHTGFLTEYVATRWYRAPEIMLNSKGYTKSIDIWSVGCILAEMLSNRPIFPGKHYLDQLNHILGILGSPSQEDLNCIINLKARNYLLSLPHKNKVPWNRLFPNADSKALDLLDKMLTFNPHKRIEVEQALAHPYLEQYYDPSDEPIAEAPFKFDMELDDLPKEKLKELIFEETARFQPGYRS
Test [3] addresses T1, Structural maintenance of chromosomes protein 1A (Homo sapiens, UniProt Q14683).
T1 sequence (Q14683 whole entry): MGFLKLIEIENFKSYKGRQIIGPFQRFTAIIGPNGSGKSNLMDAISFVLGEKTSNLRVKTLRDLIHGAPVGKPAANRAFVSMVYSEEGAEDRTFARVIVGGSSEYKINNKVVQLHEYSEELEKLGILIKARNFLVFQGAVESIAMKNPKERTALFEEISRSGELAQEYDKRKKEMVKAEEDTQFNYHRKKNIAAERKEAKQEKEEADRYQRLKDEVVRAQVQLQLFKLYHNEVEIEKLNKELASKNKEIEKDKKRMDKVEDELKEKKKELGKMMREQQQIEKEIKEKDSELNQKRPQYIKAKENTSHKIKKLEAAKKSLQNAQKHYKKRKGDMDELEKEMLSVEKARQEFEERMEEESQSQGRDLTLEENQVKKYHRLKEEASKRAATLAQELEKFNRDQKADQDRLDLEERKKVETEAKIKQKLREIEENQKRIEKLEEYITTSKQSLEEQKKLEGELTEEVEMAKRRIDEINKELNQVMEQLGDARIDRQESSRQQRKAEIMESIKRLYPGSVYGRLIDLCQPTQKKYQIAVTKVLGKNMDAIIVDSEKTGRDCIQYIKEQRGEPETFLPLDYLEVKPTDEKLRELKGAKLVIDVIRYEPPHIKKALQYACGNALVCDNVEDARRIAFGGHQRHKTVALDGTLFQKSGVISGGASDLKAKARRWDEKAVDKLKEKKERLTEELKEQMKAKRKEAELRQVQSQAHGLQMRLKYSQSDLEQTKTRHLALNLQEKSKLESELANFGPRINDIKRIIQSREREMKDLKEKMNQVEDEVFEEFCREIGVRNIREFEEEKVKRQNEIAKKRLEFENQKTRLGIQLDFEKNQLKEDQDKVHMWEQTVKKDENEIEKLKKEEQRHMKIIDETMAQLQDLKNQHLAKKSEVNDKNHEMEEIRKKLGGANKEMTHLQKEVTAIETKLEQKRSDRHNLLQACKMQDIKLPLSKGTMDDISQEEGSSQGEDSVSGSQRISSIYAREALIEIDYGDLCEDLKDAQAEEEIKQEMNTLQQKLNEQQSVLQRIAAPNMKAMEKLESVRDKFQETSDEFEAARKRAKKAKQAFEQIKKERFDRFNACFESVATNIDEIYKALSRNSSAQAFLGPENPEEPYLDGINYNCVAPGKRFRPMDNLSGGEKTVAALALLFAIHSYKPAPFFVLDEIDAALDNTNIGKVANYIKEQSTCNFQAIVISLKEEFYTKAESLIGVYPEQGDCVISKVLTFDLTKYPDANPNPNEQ

The target in test [4] is T2, cGMP-dependent protein kinase 1 (Homo sapiens, UniProt Q13976).
T2 sequence (Q13976 whole entry): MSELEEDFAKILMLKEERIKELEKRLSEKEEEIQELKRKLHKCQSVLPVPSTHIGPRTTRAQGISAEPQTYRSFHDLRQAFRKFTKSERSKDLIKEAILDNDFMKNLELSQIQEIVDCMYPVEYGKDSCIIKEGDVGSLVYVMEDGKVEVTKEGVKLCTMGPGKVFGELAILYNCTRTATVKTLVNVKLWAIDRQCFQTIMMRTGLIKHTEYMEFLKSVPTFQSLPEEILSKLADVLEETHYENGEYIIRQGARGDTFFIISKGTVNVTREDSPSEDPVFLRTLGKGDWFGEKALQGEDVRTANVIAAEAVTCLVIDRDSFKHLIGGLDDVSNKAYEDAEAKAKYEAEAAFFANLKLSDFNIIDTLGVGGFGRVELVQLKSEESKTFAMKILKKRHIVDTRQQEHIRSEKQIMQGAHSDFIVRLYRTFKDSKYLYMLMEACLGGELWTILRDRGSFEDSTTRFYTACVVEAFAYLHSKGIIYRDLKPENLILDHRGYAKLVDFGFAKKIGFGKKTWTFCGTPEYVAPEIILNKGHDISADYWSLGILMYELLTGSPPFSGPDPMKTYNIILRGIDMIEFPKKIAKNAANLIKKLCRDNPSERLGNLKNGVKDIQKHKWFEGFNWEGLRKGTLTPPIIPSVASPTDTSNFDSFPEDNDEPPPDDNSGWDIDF

The target of test [5] is T3, Serine/threonine-protein kinase NLK (Homo sapiens, UniProt Q9UBE8).
T3 sequence (Q9UBE8 whole entry): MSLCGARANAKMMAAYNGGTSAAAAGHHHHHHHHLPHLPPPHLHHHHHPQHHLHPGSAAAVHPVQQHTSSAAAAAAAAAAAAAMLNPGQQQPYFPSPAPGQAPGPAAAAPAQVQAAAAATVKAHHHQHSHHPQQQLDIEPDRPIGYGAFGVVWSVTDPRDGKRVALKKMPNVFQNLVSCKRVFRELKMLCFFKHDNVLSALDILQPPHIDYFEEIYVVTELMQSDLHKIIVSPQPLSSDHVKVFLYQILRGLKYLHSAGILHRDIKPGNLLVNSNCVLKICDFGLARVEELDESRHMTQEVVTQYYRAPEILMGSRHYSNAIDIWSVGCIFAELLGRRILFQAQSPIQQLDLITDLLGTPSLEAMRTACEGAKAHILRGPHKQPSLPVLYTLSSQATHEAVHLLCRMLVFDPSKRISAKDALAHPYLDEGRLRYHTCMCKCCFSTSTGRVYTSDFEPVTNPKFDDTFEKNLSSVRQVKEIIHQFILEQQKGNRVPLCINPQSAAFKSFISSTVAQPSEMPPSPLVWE

Test [6] deals with Glycogen synthase kinase-3 beta (Homo sapiens, UniProt P49841).
Glycogen synthase kinase-3 beta, sequence (P49841 whole entry): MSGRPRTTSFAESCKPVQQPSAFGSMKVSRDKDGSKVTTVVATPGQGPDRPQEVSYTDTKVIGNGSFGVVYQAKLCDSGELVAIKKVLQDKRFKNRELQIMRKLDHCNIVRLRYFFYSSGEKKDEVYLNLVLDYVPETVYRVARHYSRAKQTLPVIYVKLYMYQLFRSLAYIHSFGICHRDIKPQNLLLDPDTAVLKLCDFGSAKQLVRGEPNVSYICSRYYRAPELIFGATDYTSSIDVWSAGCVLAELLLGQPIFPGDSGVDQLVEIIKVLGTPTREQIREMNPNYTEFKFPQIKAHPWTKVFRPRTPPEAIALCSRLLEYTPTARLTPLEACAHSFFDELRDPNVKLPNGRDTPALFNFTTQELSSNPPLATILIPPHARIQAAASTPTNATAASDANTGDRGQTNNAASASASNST
For test [7], the target named is 26S proteasome regulatory subunit 6B (Homo sapiens, UniProt P43686).
26S proteasome regulatory subunit 6B, sequence (P43686 whole entry): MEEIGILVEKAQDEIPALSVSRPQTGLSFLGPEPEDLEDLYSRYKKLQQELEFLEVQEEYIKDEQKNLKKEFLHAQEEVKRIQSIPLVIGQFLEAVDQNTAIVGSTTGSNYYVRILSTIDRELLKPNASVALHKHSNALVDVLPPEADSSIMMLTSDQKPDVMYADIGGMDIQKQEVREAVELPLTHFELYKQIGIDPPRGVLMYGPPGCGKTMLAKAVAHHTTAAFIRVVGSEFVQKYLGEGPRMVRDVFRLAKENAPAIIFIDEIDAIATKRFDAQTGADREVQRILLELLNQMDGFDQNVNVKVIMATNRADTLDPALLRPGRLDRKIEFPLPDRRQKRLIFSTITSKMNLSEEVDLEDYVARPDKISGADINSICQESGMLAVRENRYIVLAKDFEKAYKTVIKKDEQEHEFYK
Also: in the data inactive means no Kd found up to 30 µM.

Wee1-like protein kinase, sequence (P30291 whole entry): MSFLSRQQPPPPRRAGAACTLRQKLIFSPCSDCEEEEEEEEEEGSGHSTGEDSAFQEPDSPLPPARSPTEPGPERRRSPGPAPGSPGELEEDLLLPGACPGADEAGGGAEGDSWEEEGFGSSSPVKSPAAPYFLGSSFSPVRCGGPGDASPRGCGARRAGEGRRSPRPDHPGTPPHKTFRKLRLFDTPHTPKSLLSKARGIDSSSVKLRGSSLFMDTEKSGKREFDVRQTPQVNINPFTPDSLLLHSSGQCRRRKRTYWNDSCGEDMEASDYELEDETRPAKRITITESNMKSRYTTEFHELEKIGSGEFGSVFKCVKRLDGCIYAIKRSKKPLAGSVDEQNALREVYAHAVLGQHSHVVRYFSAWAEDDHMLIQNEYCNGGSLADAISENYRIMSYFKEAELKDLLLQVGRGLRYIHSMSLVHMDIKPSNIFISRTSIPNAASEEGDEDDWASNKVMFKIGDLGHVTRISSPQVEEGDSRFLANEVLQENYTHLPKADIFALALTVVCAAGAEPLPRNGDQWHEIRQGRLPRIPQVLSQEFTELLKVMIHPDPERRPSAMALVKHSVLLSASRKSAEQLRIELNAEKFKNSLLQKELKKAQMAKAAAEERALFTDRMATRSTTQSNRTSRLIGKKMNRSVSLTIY

Regarding `COc1cc(CCc2cc(NC(=O)c3ccc(N4C[C@@H](C)N[C@@H](C)C4)cc3)n[nH]2)cc(OC)c1` [AZD-4547], the Kd in test [1], in test [2], in test [3], in test [4], in test [5] and in test [6] was > 30 µM (inactive) in each case. Besides, the Kd in test [7] is > 30 µM (inactive).

`C=CC(=O)N1CCC(Oc2cc3c(Nc4ccc(Cl)c(Cl)c4F)ncnc3cc2OC)CC1` [POZIOTINIB]: the Kd in test [1], in test [2], in test [3], in test [4], in test [5] and in test [6] was > 30 µM (inactive) in each case. Further, in test [7], the Kd is > 30 µM (inactive).

For the compound `Cc1cc2c(F)c(Oc3ncnn4cc(OC[C@@H](C)OC(=O)[C@H](C)N)c(C)c34)ccc2[nH]1` [BRIVANIB ALANINATE], the Kd in test [1], in test [2], in test [3], in test [4], in test [5] and in test [6] was > 30 µM (inactive) in each case. Moreover, the Kd in test [7] was > 30 µM (inactive).

Consider `C1=C/COCc2cc(ccc2OCCN2CCCC2)Nc2nccc(n2)-c2cccc(c2)COC/1` [PACRITINIB], for which the Kd was > 30 µM (inactive) in test [1]; > 30 µM (inactive) in test [2]; > 30 µM (inactive) in test [3]; 1.52 µM (active) in test [4]; > 30 µM (inactive) in test [5]; > 30 µM (inactive) in test [6]. Besides, in test [7], the Kd was > 30 µM (inactive).

On to `C[C@@H]1CN(Cc2ccc(F)cc2)[C@@H](C)CN1C(=O)c1cc2c(C(=O)C(=O)N(C)C)cn(C)c2cc1Cl` [TALMAPIMOD], for which the Kd in test [1], in test [2], in test [3], in test [4], in test [5] and in test [6] was > 30 µM (inactive) throughout. Besides, the Kd in test [7] is > 30 µM (inactive).

For `CCc1cnn2c(NCc3ccc[n+]([O-])c3)cc(N3CCCC[C@H]3CCO)nc12` [DINACICLIB], the Kd in test [1] was > 30 µM (inactive); in test [2], > 30 µM (inactive); in test [3] it was > 30 µM (inactive); in test [4], > 30 µM (inactive); in test [5], > 30 µM (inactive); in test [6], 1.43 µM (active). Further, the Kd in test [7] was > 30 µM (inactive).

On to `CN1CCC(COc2cnc(-c3cccc(Cn4nc(-c5cccc(C#N)c5)ccc4=O)c3)nc2)CC1` [TEPOTINIB], for which the Kd in test [1], in test [2], in test [3], in test [4], in test [5] and in test [6] was > 30 µM (inactive) throughout. In addition, the Kd in test [7] was > 30 µM (inactive).

Take `COc1cc2nccc(Oc3ccc(NC(=O)NC4CC4)c(Cl)c3)c2cc1C(N)=O` [LENVATINIB]: the Kd in test [1], in test [2], in test [3], in test [4], in test [5] and in test [6] was > 30 µM (inactive) in each case. The Kd in test [7] is > 30 µM (inactive).

For `CNC(=O)c1ccc(C)c(-n2c(C)cc(OCc3ccc(F)cc3F)c(Br)c2=O)c1` [PH-797804], the Kd in test [1], in test [2], in test [3], in test [4], in test [5] and in test [6] was > 30 µM (inactive) each time. Besides, the Kd in test [7] is > 30 µM (inactive).

In the case of `COc1cc2nccc(Oc3ccc(NC(=O)Nc4cc(C)on4)c(Cl)c3)c2cc1OC` [TIVOZANIB], the Kd in test [1], in test [2], in test [3], in test [4], in test [5] and in test [6] was > 30 µM (inactive) in each case. For the same compound, in test [7], the Kd is > 30 µM (inactive).

`C[C@@H](c1ccc2nccn2c1)n1nnc2ncc(-c3cnn(C)c3)nc21` [SAVOLITINIB]: the Kd in test [1], in test [2], in test [3], in test [4], in test [5] and in test [6] was > 30 µM (inactive) throughout. Further, in test [7], the Kd is > 30 µM (inactive).

`N[C@@H]1CCCN(c2c(/C=C3\SC(=O)NC3=O)cccc2-c2ccccc2)C1`: the Kd in test [1], in test [2], in test [3], in test [4], in test [5] and in test [6] was > 30 µM (inactive) each time. The Kd in test [7] was > 30 µM (inactive).

For `Cc1cc([C@@H](C)Nc2ccccc2C(=O)O)c2nc(N3CCOCC3)cc(=O)n2c1` [AZD-6482], the Kd in test [1], in test [2], in test [3], in test [4], in test [5] and in test [6] was > 30 µM (inactive) each time. Moreover, in test [7], the Kd is > 30 µM (inactive).

Consider `CN1CCC(CNc2ccc3ncc(-c4cccc(OC(F)(F)F)c4)n3n2)CC1` [SGI-1776], for which the Kd in test [1], in test [2], in test [3], in test [4], in test [5] and in test [6] was > 30 µM (inactive) each time. Further, in test [7], the Kd was > 30 µM (inactive).

For the compound `CNC(=O)c1cc(Oc2ccc(NC(=O)Nc3ccc(Cl)c(C(F)(F)F)c3)c(F)c2)ccn1` [REGORAFENIB], the Kd in test [1], in test [2], in test [3], in test [4], in test [5] and in test [6] was > 30 µM (inactive) throughout. In addition, the Kd in test [7] is > 30 µM (inactive).
